{"source": "patent US9034906B2", "about": "“EP4 agonist” (Asahi Glass Company, Limited, priority 2008, dated 2015)", "key": {"[1]": {"system": "T cell transfer colitis", "experiment": "CD4+CD25- T cell transfer colitis model in mice", "format": "in vivo, mouse", "conditions": "C.B-17/Icr-scid mice, oral 1 mg/kg once a day", "description": "The effect on Crohn's disease, another type of inflammatory bowel disease, was studied. T cell transfer model is well known as a Crohn's disease model, which develops chronic […] or enteritis (see: References F, G, H). In addition, it can also be regarded as an animal model of intestinal Behcet's disease or simple ulcer, suffering from similar intestinal ulcer accompanied by activation of T cells (see: References I, J).\nFemale BALB/cA Jcl mice, 6 weeks old, body weight 19-23 g (CLEA Japan, Inc.) and female C.B-17/Icr-scid mice (6 weeks old, CLEA Japan, Inc.) were purchased, acclimated for 1 week and used for the study.\nAfter laparotomy under ether anesthesia, BALB/cA Jcl mice were exsanguinated to death through the abdominal aorta and caudal vena cava, and the spleen was isolated. Splenocytes were prepared from the spleen and then CD4^+CD25^− T cells were prepared with a CD4^+ T cell Isolation Kit (No. 130-090-860, Milky Biotech Co., Ltd.) and CD25-Biotin antibody (No. 130-092-569, Milky Biotech Co., Ltd.). The cells were separated using the autoMACS Separator (Milky Biotech Co., Ltd.). The separated CD4^+CD25^− T cells were suspended in physiological phosphate buffer solution, and 2.5×10^5 cells per animal were intraperitoneally administered to C.B-17/Icr-scid mice to induce colitis.\nOne mg/kg of compound F or prednisolone was initially administered at 5 hr before transfer of CD4^+CD25^− T cells, and orally administered thereafter once a day, daily, for 20 days. To the control group was orally administered a solvent (1 vol % ethanol solution) at 10 mL/kg. A clinical endpoint was the sum of stool consistency score (0-5), fecal occult blood score (0-4) and body weight decrease score (0-5), termed as the Disease Activity Index score (hereinafter to be abbreviated as DAI score: highest score 14). The stool consistency score was graded for the hardness of stool as normal (0), slightly loose (1), somewhat loose (2), loose (3), considerably loose (4) and diarrhea (5). The fecal occult blood score was evaluated in the same manner as in Example 23. The body weight decrease score was graded for the changes in the body weight as increase (0), decrease of less than 3% (1), decrease of not less than 3% and less than 6% (2), decrease of not less than 6% and less than 9% (3), decrease of not less than 9% and less than 12% (4), and decrease of not less than 12% (5). Eight to 10 mice were used for each group and the results were expressed as average."}, "[2]": {"system": "indomethacin-induced small intestinal injury", "experiment": "Indomethacin-induced small intestinal injury model in rats", "format": "in vivo, rat", "conditions": "SD rats, 30 min before and 6 hr after indomethacin", "description": "The suppressive effect of compound F on small intestinal injury was investigated using indomethacin-induced small intestinal injury model in rats. Administration of non-steroidal anti-inflammatory drugs (NSAIDs) is known to induce hemorrhagic injury in the small intestine of human.\nMale SD rats, 7 weeks old (Charles River) were purchased, acclimated for 1 week and used for the study. The rats were grouped based on the body weight and subcutaneously administered with indomethacin (SIGMA, Lot No. 19F0018) at 15 mg/5 mL/kg to all groups to induce small intestinal injury. Compound F at doses of 0.01, 0.1 and 1 mg/kg was orally administered at a volume of 5 mL/kg 30 min before and 6 hr after the subcutaneous administration of indomethacin. To the control group was orally administered a solvent (1 vol % ethanol solution) at 5 mL/kg in the same manner. Eight animals were used for each group.\nThe rats were intravenously administered with 2 mL of 10 mg/mL Evans blue solution under ether anesthesia 23.5 hr after the indomethacin administration. After 30 min, the rats were bled to death from the abdominal aorta and caudal vena cava under ether anesthesia and the small intestine was isolated. […] The length and width of each ulcer were measured under a stereomicroscope, the area was calculated, and the sum thereof was taken as the total ulcer area."}, "[3]": {"experiment": "Effect on blood pressure and heart rate in mice", "format": "in vivo, mouse", "conditions": "ICR mice, intravenous 0.01 mg/kg, isoflurane anesthesia", "description": "Male ICR mice (5 weeks old, Japan SLC) were purchased, acclimated for 6 days and used for the test. The animals were treated and measured under isoflurane inhalation anesthesia (anesthesia introduced at 2.5%, maintained at 1.8-2.1%), while body temperature was kept at 37° C. with a Heat Controller (ATC-402, Unique Medical Co., Ltd.). A catheter for administration of test compounds was inserted into the left femoral vein, and another catheter was inserted into the right femoral artery and connected to a pressure transducer to record each parameter of hemodynamics.\nCompound F, the carboxylate form of compound F and BPS were intravenously administered at a dose of 0.01 mg/5 mL/kg, and the effect on the mean blood pressure and heart rate was evaluated with computer software for the analysis of hemodynamics (Fluclet, Dainippon Sumitomo Pharma Co., Ltd.). To the control group was intravenously administered a solvent (1.2% ethanol solution) at 5 mL/kg in the same manner. The results are expressed as a ratio of change in each parameter before and after the drug administration. Three to 6 animals were used for each group, and the results were expressed as average±standard deviation."}, "[4]": {"experiment": "In vitro metabolic stability: NADPH-independent β oxidation reaction in rat liver mitochondria fraction", "format": "in vitro ADME", "conditions": "37° C., 30 min, tested as isomer mixtures, average±SD of 3 experiments", "description": "A mixture of the compound F and compound J of the present invention described in Table 1 (F:J=52:41, synthesized in Example 14), and a mixture of compounds wherein the tetrazole groups at C-1 of compound F and compound J are respectively substituted by carboxylic acid (referred to as carboxylate form, F:J=54:34, synthesized in Example 15) were tested.\nFirst, a mitochondria fraction was prepared from the rat liver according to the following Reference A. Then, in reference to the method of […] et al. described in the following References B and C, an NADPH-independent β oxidation reaction was studied. The reaction was carried out at 37° C. for 30 min, and stopped with a methanol solution containing a suitable internal standard substance. Each compound was quantified by the internal standard method using a high performance liquid chromatography mass spectrometry apparatus (LC-MS/MS). The compound residual ratio after metabolic reaction of compounds F, J and each carboxylate form thereof in rat mitochondria fraction is shown in the following Table 2 in average±standard deviation of 3 experiments."}}}
{"smiles": "Cc1cccc([C@@H](C)[C@H](O)/C=C/[C@@H]2[C@@H]3[C@H](C[C@H]2O)O/C(=C\\CCCc2nnn[nH]2)C3(F)F)c1", "note": "[Compound F, 4-[(Z)-(1S,5R,6R,7R)-6-[(1E,3R,4R)-3-hydroxy-4-(m-tolyl)-1-pentenyl]-7-hydroxy-2-oxa-4,4-difluoro-bicyclo[3.3.0]octan-3-ylidene]-1-(tetrazol-5-yl)butane]", "values": [{"measurement": "DAI score", "setting": "[1]", "result": "comprehensively superior to prednisolone"}, {"measurement": "Effect on body weight decrease score", "setting": "[1]", "result": "prevented the increase in the body weight decrease score almost completely"}, {"measurement": "Effect on fecal occult blood score", "setting": "[1]", "result": "suppressed the increases in both the stool consistency score and the fecal occult blood score by almost half"}, {"measurement": "Effect on stool consistency score", "setting": "[1]", "result": "suppressed the increases in both the stool consistency score and the fecal occult blood score by almost half"}, {"measurement": "Effect on total ulcer area (small intestine)", "setting": "[2]; oral 1 mg/kg", "result": "completely reduced the area"}, {"measurement": "Effect on total ulcer area (small intestine)", "setting": "[2]; oral, from 0.1 mg/kg", "result": "significantly reduced the ulcer area in a dose-dependent manner"}, {"measurement": "Effect on heart rate", "setting": "[3]", "result": "little effect"}, {"measurement": "Maximum decrease ratio of mean blood pressure", "setting": "[3]", "result": 16.2, "unit": "%"}, {"measurement": "Residual ratio of parent compound after β-oxidation reaction", "setting": "[4]", "result": "91.6 ± 6.8", "unit": "%"}]}
